Data on 6 molecules can be found in BindingDB's records for doi:10.1021/jm960573f (University of Washington, 1997).

This test can be described thus: Binding affinity was determined in a crude membrane preparation from guinea pig brain by displacement of [3H]DPDPE from Opioid receptor delta 1. Background: In a radioligand displacement assay an active substance lowers the binding of a labelled ligand.

As usually defined, the Ki is a measure of affinity in units of concentration, obtained from inhibition or displacement. Read a low Ki as higher affinity.

Each structure is given as a SMILES string. Several values for one entry are separate records, joined by “and”; a condition that tells them apart may be missing. Equal entries are not always repeated.

As to `O=C1C(=Cc2c3ccccc3cc3ccccc23)C[C@@]2(O)[C@H]3Cc4ccc(O)c5c4C2(CCN3CC2CC2)[C@H]1O5`, the Ki was 2.4 nM and 17 nM. `O=C1C(=Cc2ccc(-c3ccccc3)cc2)C[C@@]2(O)[C@H]3Cc4ccc(O)c5c4C2(CCN3CC2CC2)[C@H]1O5`: the Ki was 75 nM and 47 nM.

As for `O=C1/C(=C\c2ccccc2)C[C@@]2(O)[C@H]3Cc4ccc(O)c5c4[C@@]2(CCN3CC2CC2)[C@H]1O5`, the Ki was found to be 3.7 nM. Next, `O=C1C(=Cc2cccc3ccccc23)C[C@@]2(O)[C@H]3Cc4ccc(O)c5c4C2(CCN3CC2CC2)[C@H]1O5` [4-cyclopropylmethyl-10,17-dihydroxy-15-[1-(1-naphthyl)-(Z)-methylidene]-(5R,13R,17S)-12-oxa-4-azapentacyclo[9.6.1.01,13.05,17.07,18]octadeca-7(18),8,10-trien-14-one]: 4.6 nM and 0.7 nM; `O=C1C(=Cc2ccc3ccccc3c2)C[C@@]2(O)[C@H]3Cc4ccc(O)c5c4C2(CCN3CC2CC2)[C@H]1O5` [4-cyclopropylmethyl-10,17-dihydroxy-15-[1-(2-naphthyl)-(E)-methylidene]-(5R,13R,17S)-12-oxa-4-azapentacyclo[9.6.1.01,13.05,17.07,18]octadeca-7(18),8,10-trien-14-one]: 39 nM.

Molecule `O=C1/C(=C/c2ccccc2)C[C@@]2(O)[C@H]3Cc4ccc(O)c5c4[C@@]2(CCN3CC2CC2)[C@H]1O5` [7-Benzylidenenaltrexone] showed a Ki of 6.2 nM.
